Data reported in patent US8952024B2, “Herbicidal pyrimidone derivatives” (E I du Pont de Nemours and Company, priority 2009, dated 2015).
Like-named read-outs stand apart in the source and are kept apart here.

Assays:
Assay in all cases: Test B pre-/postemergence plant response
Type in all cases: in vivo
[1] = test system: pigweed (Amaranthus retroflexus); conditions: for pest or weed control at 16 g/ha: 16 g ai/ha; for pest or weed control at 16 g/ha / pest or weed control at 31 g/ha / pest or weed control at 62 g/ha: read-out: Plant response rating, Pigweed; for pest or weed control at 31 g/ha: 31 g ai/ha; for pest or weed control at 62 g/ha: 62 g ai/ha
How it was run: (§1)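 Pre-em in loam/sand; post-em at 1–4 leaf (2–18 cm) in peat mix. Solvent + surfactant formulation. Greenhouse 13–15 d; visual % control vs untreated, 0–100.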

[2] = test system: ragweed (common ragweed, Ambrosia elatior); conditions: for pest or weed control at 31 g/ha: 31 g ai/ha; for pest or weed control at 62 g/ha: 62 g ai/ha
How it was run: as §1

soybean (Glycine max) = conditions: for plant injury at 31 g/ha: 31 g ai/ha, scale 0 to 100 (0 no effect, 100 complete control); for plant injury at 62 g/ha: 62 g ai/ha
How it was run: as §1

[3] = test system: wheat (Triticum aestivum); conditions: for plant injury at 31 g/ha: 31 g ai/ha; for plant injury at 62 g/ha: 62 g ai/ha
How it was run: as §1

[4] = test system: blackgrass (Alopecurus myosuroides); conditions: for pest or weed control at 16 g/ha: 16 g ai/ha; for pest or weed control at 16 g/ha / pest or weed control at 31 g/ha / pest or weed control at 62 g/ha: read-out: Plant response rating, Blackgrass; for pest or weed control at 31 g/ha: 31 g ai/ha; for pest or weed control at 62 g/ha: 62 g ai/ha
How it was run: as §1

[5] = test system: velvetleaf (Abutilon theophrasti); conditions: for pest or weed control at 31 g/ha: 31 g ai/ha; for pest or weed control at 31 g/ha / pest or weed control at 62 g/ha: read-out: Plant response rating, Velvetleaf; for pest or weed control at 62 g/ha: 62 g ai/ha
How it was run: as §1

[6] = test system: Surinam grass (Brachiaria decumbens); conditions: for pest or weed control at 31 g/ha: 31 g ai/ha; for pest or weed control at 62 g/ha: 62 g ai/ha
How it was run: as §1

[7] = test system: woolly cupgrass (Eriochloa villosa); conditions: for pest or weed control at 16 g/ha: 16 g ai/ha; for pest or weed control at 16 g/ha / pest or weed control at 31 g/ha / pest or weed control at 62 g/ha: read-out: Plant response rating, Cupgrass, Woolly; for pest or weed control at 31 g/ha: 31 g ai/ha; for pest or weed control at 62 g/ha: 62 g ai/ha
How it was run: as §1

[8] = test system: goosegrass (Eleusine indica); conditions: for pest or weed control at 16 g/ha: 16 g ai/ha; for pest or weed control at 16 g/ha / pest or weed control at 31 g/ha / pest or weed control at 62 g/ha: read-out: Plant response rating, Goosegrass; for pest or weed control at 31 g/ha: 31 g ai/ha; for pest or weed control at 62 g/ha: 62 g ai/ha
How it was run: as §1

[9] = test system: lambsquarters (Chenopodium album); conditions: Chenopodium album, post-emergence, Postemergence, read-out: Plant response rating, Lambsquarters
How it was run: as §1

[10] = Amaranthus retroflexus, pre-emergence, Preemergence, scale 0 to 100 (0 no effect, 100 complete control)
[11] = Preemergence, 125 g ai/ha, 0 to 100 scale
[12] = Ambrosia artemisiifolia, pre-emergence, 360 h, Preemergence, scale 0 to 100 (0 no effect, 100 complete control), read-out: Plant response rating, Ragweed
[13] = Triticum aestivum, pre-emergence, Preemergence, scale 0 to 100 (0 no effect, 100 complete control), read-out: Plant response rating, Wheat
[14] = Alopecurus myosuroides, pre-emergence, 360 h, Preemergence, scale 0 to 100 (0 no effect, 100 complete control)
[15] = Abutilon theophrasti, pre-emergence, 360 h, Preemergence, scale 0 to 100 (0 no effect, 100 complete control)
[16] = Urochloa decumbens, pre-emergence, Preemergence, scale 0 to 100 (0 no effect, 100 complete control), read-out: Plant response rating, Surinam Grass
[17] = Eriochloa villosa, pre-emergence, Preemergence, scale 0 to 100 (0 no effect, 100 complete control)
[18] = Eleusine indica, pre-emergence, Preemergence, scale 0 to 100 (0 no effect, 100 complete control)

O=C1CCCC(O)=C1C(=O)c1cnc(-c2ccccc2)n(-c2ccccc2)c1=O [Compound 2, 5-[(2-hydroxy-6-oxo-1-cyclohexen-1-yl)carbonyl]-2,3-diphenyl-4(3H)-pyrimidinone]
pest or weed control at 16 g/ha ([1]; Amaranthus retroflexus, post-emergence, Postemergence, 0 to 100 scale): 70%
pest or weed control at 31 g/ha ([1]; Amaranthus retroflexus, post-emergence, Postemergence, scale 0 to 100 (0 no effect, 100 complete control)): 85%
pest or weed control at 62 g/ha ([1]; Amaranthus retroflexus, post-emergence, Postemergence, scale 0 (no effect) to 100 (complete control), 13 to 15 days): 90%
pest or weed control at 125 g/ha ([1]; Amaranthus retroflexus, post-emergence, Postemergence, 125 g ai/ha, visual rating after 13 to 15 days, scale 0 (no effect) to 100 (complete control)): 95%
pest or weed control at 16 g/ha [1, 10]: 98%
pest or weed control at 31 g/ha [1, 10]: 100%
pest or weed control at 62 g/ha [1, 10]: 100%
Pigweed plant response rating [1, 11]: 100
pest or weed control at 16 g/ha ([2]; Ambrosia artemisiifolia, post-emergence, 360 h, 16 g ai/ha, Postemergence, 0 to 100 scale, read-out: Plant response rating, Ragweed): 65%
pest or weed control at 31 g/ha ([2]; Ambrosia artemisiifolia, post-emergence, 360 h, Postemergence, scale 0 to 100 (0 no effect, 100 complete control), read-out: Plant response rating, Ragweed): 70%
pest or weed control at 62 g/ha ([2]; Ambrosia artemisiifolia, post-emergence, 360 h, Postemergence, scale 0 (no effect) to 100 (complete control), 13 to 15 days, read-out: Plant response rating, Ragweed): 80%
pest or weed control at 125 g/ha ([2]; Ambrosia artemisiifolia, post-emergence, 360 h, Postemergence, 125 g ai/ha, visual rating after 13 to 15 days, scale 0 (no effect) to 100 (complete control)): 90%
pest or weed control at 31 g/ha [2, 12]: 60%
pest or weed control at 62 g/ha [2, 12]: 85%
Ragweed plant response rating [2, 11]: 98
plant injury at 16 g/ha (soybean (Glycine max); Glycine max, post-emergence, 16 g ai/ha, Postemergence, 0 to 100 scale, read-out: Plant response rating, Soybean): 75%
plant injury at 31 g/ha (soybean (Glycine max); Glycine max, post-emergence, Postemergence, read-out: Plant response rating, Soybean): 80%
plant injury at 62 g/ha (soybean (Glycine max); Glycine max, post-emergence, Postemergence, scale 0 (no effect) to 100 (complete control), 13 to 15 days, read-out: Plant response rating, Soybean): 90%
plant injury at 125 g/ha (soybean (Glycine max); Glycine max, post-emergence, Postemergence, 125 g ai/ha, visual rating after 13 to 15 days, scale 0 (no effect) to 100 (complete control)): 95%
plant injury at 31 g/ha (soybean (Glycine max); Glycine max, pre-emergence, Preemergence, read-out: Plant response rating, Soybean): 15%
plant injury at 62 g/ha (soybean (Glycine max); Glycine max, pre-emergence, Preemergence, scale 0 to 100, 0 no effect, 100 complete control, read-out: Plant response rating, Soybean): 60%
Soybean plant response rating (soybean (Glycine max); [11]): 70
Wheat plant response rating [3, 11]: 0
plant injury at 16 g/ha ([3]; Triticum aestivum, post-emergence, 16 g ai/ha, Postemergence, 0 to 100 scale, read-out: Plant response rating, Wheat): 0%
plant injury at 31 g/ha ([3]; Triticum aestivum, post-emergence, Postemergence, scale 0 to 100 (0 no effect, 100 complete control), read-out: Plant response rating, Wheat): 5%
plant injury at 62 g/ha ([3]; Triticum aestivum, post-emergence, Postemergence, scale 0 (no effect) to 100 (complete control), 13 to 15 days, read-out: Plant response rating, Wheat): 10%
plant injury at 125 g/ha ([3]; Triticum aestivum, post-emergence, Postemergence, 125 g ai/ha, visual rating after 13 to 15 days, scale 0 (no effect) to 100 (complete control)): 20%
plant injury at 31 g/ha [3, 13]: 0%
plant injury at 62 g/ha [3, 13]: 0%
pest or weed control at 16 g/ha ([4]; Alopecurus myosuroides, post-emergence, 360 h, Postemergence, 0 to 100 scale): 0%
pest or weed control at 31 g/ha ([4]; Alopecurus myosuroides, post-emergence, 360 h, Postemergence, scale 0 to 100 (0 no effect, 100 complete control)): 10%
pest or weed control at 62 g/ha ([4]; Alopecurus myosuroides, post-emergence, 360 h, Postemergence, scale 0 (no effect) to 100 (complete control), 13 to 15 days): 30%
pest or weed control at 125 g/ha ([4]; Alopecurus myosuroides, post-emergence, 360 h, Postemergence, 125 g ai/ha, visual rating after 13 to 15 days, scale 0 (no effect) to 100 (complete control)): 45%
pest or weed control at 16 g/ha [4, 14]: 0%
pest or weed control at 31 g/ha [4, 14]: 0%
pest or weed control at 62 g/ha ([4]; Alopecurus myosuroides, pre-emergence, 360 h, Preemergence, scale 0 to 100, 0 no effect, 100 complete control): 0%
Blackgrass plant response rating [4, 11]: 50
pest or weed control at 31 g/ha ([5]; Abutilon theophrasti, post-emergence, 360 h, Postemergence, scale 0 to 100 (0 no effect, 100 complete control)): 85%
pest or weed control at 62 g/ha ([5]; Abutilon theophrasti, post-emergence, 360 h, Postemergence, scale 0 (no effect) to 100 (complete control), 13 to 15 days): 85%
pest or weed control at 125 g/ha ([5]; Abutilon theophrasti, post-emergence, 360 h, Postemergence, 125 g ai/ha, visual rating after 13 to 15 days, scale 0 (no effect) to 100 (complete control)): 90%
pest or weed control at 31 g/ha [5, 15]: 75%
pest or weed control at 62 g/ha [5, 15]: 90%
Velvetleaf plant response rating [5, 11]: 100
Surinam Grass plant response rating [6, 11]: 60
pest or weed control at 16 g/ha ([6]; Urochloa decumbens, post-emergence, 16 g ai/ha, Postemergence, 0 to 100 scale, read-out: Plant response rating, Surinam Grass): 70%
pest or weed control at 31 g/ha ([6]; Urochloa decumbens, post-emergence, Postemergence, scale 0 to 100 (0 no effect, 100 complete control), read-out: Plant response rating, Surinam Grass): 70%
pest or weed control at 62 g/ha ([6]; Urochloa decumbens, post-emergence, Postemergence, scale 0 (no effect) to 100 (complete control), 13 to 15 days, read-out: Plant response rating, Surinam Grass): 75%
pest or weed control at 125 g/ha ([6]; Urochloa decumbens, post-emergence, Postemergence, 125 g ai/ha, visual rating after 13 to 15 days, scale 0 (no effect) to 100 (complete control)): 85%
pest or weed control at 31 g/ha [6, 16]: 15%
pest or weed control at 62 g/ha [6, 16]: 20%
pest or weed control at 16 g/ha ([7]; Eriochloa villosa, post-emergence, Postemergence, 0 to 100 scale): 75%
pest or weed control at 31 g/ha ([7]; Eriochloa villosa, post-emergence, Postemergence, scale 0 to 100 (0 no effect, 100 complete control)): 75%
pest or weed control at 62 g/ha ([7]; Eriochloa villosa, post-emergence, Postemergence, scale 0 (no effect) to 100 (complete control), 13 to 15 days): 80%
pest or weed control at 125 g/ha ([7]; Eriochloa villosa, post-emergence, Postemergence, 125 g ai/ha, visual rating after 13 to 15 days, scale 0 (no effect) to 100 (complete control)): 85%
pest or weed control at 16 g/ha [7, 17]: 0%
pest or weed control at 31 g/ha [7, 17]: 0%
pest or weed control at 62 g/ha ([7]; Eriochloa villosa, pre-emergence, Preemergence, scale 0 to 100, 0 no effect, 100 complete control): 15%
Cupgrass, Woolly plant response rating [7, 11]: 20
pest or weed control at 16 g/ha ([8]; Eleusine indica, post-emergence, Postemergence, 0 to 100 scale): 80%
pest or weed control at 31 g/ha ([8]; Eleusine indica, post-emergence, Postemergence, scale 0 to 100 (0 no effect, 100 complete control)): 80%
pest or weed control at 62 g/ha ([8]; Eleusine indica, post-emergence, Postemergence, scale 0 (no effect) to 100 (complete control), 13 to 15 days): 90%
pest or weed control at 125 g/ha ([8]; Eleusine indica, post-emergence, Postemergence, 125 g ai/ha, visual rating after 13 to 15 days, scale 0 (no effect) to 100 (complete control)): 95%
pest or weed control at 16 g/ha [8, 18]: 0%
pest or weed control at 31 g/ha [8, 18]: 85%
pest or weed control at 62 g/ha ([8]; Eleusine indica, pre-emergence, Preemergence, scale 0 to 100, 0 no effect, 100 complete control): 100%
Goosegrass plant response rating [8, 11]: 100
pest or weed control at 16 g/ha ([9]; 16 g ai/ha, 0 to 100 scale): 80%
pest or weed control at 31 g/ha ([9]; 31 g ai/ha, scale 0 to 100 (0 no effect, 100 complete control)): 90%
